US6548242B2, “Process for the sterilization of biological compositions and the product thereby” (priority 1990, dated 2003)
Values joined by “and” are separate entries in the source; they are usually repeats but may differ in a detail not shown here. Equal values may be shown once.

Experiments:
[1] = tested on: cell-free vesicular stomatitis virus (VSV); format: cell-based
[2] = tested on: RBCCs; experiment: Extracellular (plasma) potassium of stored RBCCs
[3] = tested on: bacteriophage M13; format: cell-based
[4] = tested on: lymphocytes; experiment: Lymphocyte inactivation, 3H thymidine uptake after mitogen stimulation; format: cell-based; settings: 15 Gy γ-irradiation
[5] = tested on: red blood cell concentrate; experiment: Red cell hemolysis after X-irradiation of red blood cell concentrate; settings: brominated hematoporphyrin derivative, 1 mm rutin
[6] = tested on: platelets; experiment: Platelet aggregation in response to collagen after treatment of platelet concentrate; format: cell-based
[7] = tested on: platelets; experiment: Survival of infused radiolabeled UVB-irradiated platelets; format: in vivo, dogs; settings: dog PCs, 36 mJ/cm^2 UVB in presence of 2 mM rutin, 51chromium label
[8] = tested on: platelets; experiment: Platelet aggregation response to arachidonic acid and ADP after γ-irradiation of PCs; format: cell-based; settings: 2 mM rutin
[9] = tested on: cell-associated VSV; format: cell-based, vesicular stomatitis virus
[10] = tested on: encephalomyocarditis virus (EMC); format: cell-based
[11] = 25 μg/ml AMT and 90 minutes of UVA in presence of flavonoid, overnight storage
[12] = 50 μg/ml AMT, 90 minute UVA, air, +0.5 mM Rutin, experiments 1-5
[13] = flavonoid present, no AMT/UVA treatment, overnight storage

## C[C@@H]1O[C@@H](OC[C@H]2O[C@@H](Oc3c(-c4ccc(O)c(O)c4)oc4cc(O)cc(O)c4c3=O)[C@H](O)[C@@H](O)[C@@H]2O)[C@H](O)[C@H](O)[C@H]1O [rutin]
[1]
  LOG10 VIRUS KILL VSV: ≧6 LOG10
  Virus Kill (log10) VSV: ≧5.4 log10
  kill of VSV: exceeded 5 log10
[2]; RBCC, AlPcS4 treatment then γ-irradiation 25 Gy, rutin present during γ-irradiation and storage, 2 days
  plasma K+: 25 mM
[2]; RBCC, AlPcS4 treatment then γ-irradiation 25 Gy, rutin present during γ-irradiation and storage, 7 days
  plasma K+: 40 mM
[2]; RBCCs, 50 Gy γ-irradiation, 2 mM rutin present during treatment
  plasma K+: 40 mM
[2]; RBCCs, γ-irradiation, 2 mM rutin
  Extracellular potassium: decreased to control levels
[3]
  LOG10 VIRUS KILL M13: 6 LOG10 and 3 LOG10 and 5 LOG10
[4]; PCs, independent of presence or concentration of rutin
  3H thymidine uptake retained by irradiated lymphocytes: 1.5%
[4]; RBCCs, independent of presence or concentration of rutin (0.5, 1 or 2 mM)
  3H thymidine uptake retained by irradiated lymphocytes: 1.5%
[5]
  red cell hemolysis: less than 2%
[6]; [11]
  % Untreated Control - Extent of Aggregation Response to Collagen, treated: 100/100 % Untreated Control
  % Untreated Control - Rate of Aggregation Response to Collagen, treated: 100/100 % Untreated Control
[6]; [12]
  Platelet aggregation, first value of pair (extent as in Table III): 95 and 96/96 and 100 and 100/100 and 98
  Platelet aggregation, second value of pair (rate as in Table III): 90 and 96/96 and 84 and 100/100 and 95
[6]; Platelet Conc., 50 μg/ml AMT + 57 J/cm^2 UVA, 0.35 mM rutin
  agg response: 85%
[6]; [13]
  % Untreated Control - Extent of Aggregation Response to Collagen, untreated: 100/100 % Untreated Control
  % Untreated Control - Rate of Aggregation Response to Collagen, untreated: 100/100 % Untreated Control
[6]; platelet conc., 25, 50 or 100 μg/ml AMT, 90 min UVA, 0.7 mM rutin
  aggregation function: more than 80 % of the control
[7]
  Survival of UV-exposed donor platelets: 5 days
[8]; 50 Gy γ-irradiation, 3 day storage
  rate of aggregation: 80 % of the control
[8]; γ-irradiation 15-50 Gy, after 1 day
  Platelet aggregation: 95%
[9]
  inactivation of cell-associated VSV: ~6 log10
[10]
  Virus Kill (log10) EMC: ≧7.7 log10
